From patent US8304539B2, “Fused heteroaryl modulators of glucocorticoid receptor, AP-1, and/or NF-κB activity and use thereof” (Bristol-Myers Squibb Company, priority 2008, dated 2012) come the findings set out here.

For this test, the target named is T1, human full-length glucocorticoid receptor (Homo sapiens, UniProt P04150).
T1 construct: recombinantly expressed human full-length glucocorticoid receptor; purchased PanVera Co., Madison, Wis; P2816
T1 sequence (P04150 1-777): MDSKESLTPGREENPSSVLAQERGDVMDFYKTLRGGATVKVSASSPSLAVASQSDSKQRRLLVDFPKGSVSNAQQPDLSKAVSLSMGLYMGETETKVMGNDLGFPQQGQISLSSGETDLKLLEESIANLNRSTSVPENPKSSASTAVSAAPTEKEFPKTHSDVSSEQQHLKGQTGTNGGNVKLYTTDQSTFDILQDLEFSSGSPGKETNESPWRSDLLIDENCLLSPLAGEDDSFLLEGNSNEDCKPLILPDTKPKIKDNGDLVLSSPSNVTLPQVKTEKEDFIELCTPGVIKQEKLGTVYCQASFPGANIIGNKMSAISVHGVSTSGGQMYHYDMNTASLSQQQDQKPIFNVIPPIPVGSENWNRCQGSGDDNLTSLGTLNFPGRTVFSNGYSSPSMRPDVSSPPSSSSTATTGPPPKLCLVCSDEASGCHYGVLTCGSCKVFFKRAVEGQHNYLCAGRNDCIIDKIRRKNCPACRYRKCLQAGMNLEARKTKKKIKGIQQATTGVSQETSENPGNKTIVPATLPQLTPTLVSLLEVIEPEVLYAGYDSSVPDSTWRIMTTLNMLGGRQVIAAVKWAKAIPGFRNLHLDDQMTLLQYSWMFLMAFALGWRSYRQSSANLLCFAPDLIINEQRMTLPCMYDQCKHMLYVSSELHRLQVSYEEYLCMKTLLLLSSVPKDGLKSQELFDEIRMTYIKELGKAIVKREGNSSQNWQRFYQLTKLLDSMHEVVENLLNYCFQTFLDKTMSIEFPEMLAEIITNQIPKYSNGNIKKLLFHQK
Nature of the test: GR binding Assay II (fluorescence polarization competitor assay). To be noted: given where AP-1 EC50 is greater than 1 uM and/or maximal inhibition is less than 20%; read-out: GR (Ki, nM) (measured in GR binding Assay II). On the procedure:
Glucocorticoid Receptor Binding Assay (II)
In order to measure the binding of compounds on the glucocorticoid receptor a commercially available kit was used (Glucocorticoid receptor competitor assay kit, PanVera Co., Madison, Wis., P2816). Briefly, a cell lysate containing recombinantly expressed human full-length glucocorticoid receptor was mixed with a fluorescently labeled glucocorticoid (1 nM Fluormone GS1) in the presence or absence of test compound. After one hour at room temperature, the fluorescence polarization (FP) of the samples were measured. The FP of a mixture of receptor, fluorescent probe (i.e. Fluormone GS1) and 1 mM dexamethasone represented background fluorescence or 100% inhibition, whereas, the FP of the mixture without dexamethasone was taken to be 100% binding. The percentage inhibition of test molecules were then compared to the sample with 1 mM dexamethasone and expressed as % relative binding activity with dexamethasone being 100% and no inhibition is 0%. Test molecules were analyzed in the concentration range from 2.4 nM to 40 microMolar.

On to `CCSc1ccc(-c2ccc3c(n2)Oc2nc(C)ccc2[C@@H]3C(C)(C)C(=O)Nc2nncs2)cc1` [Example 78], for which the inhibitory constant (Ki) was determined as 2.15 nM.

Consider `CN(C)C(=O)c1ccc(-c2ccc3c(n2)Oc2nc(N4CCOCC4)ccc2C3C(C)(C)C(=O)Nc2nncs2)cc1` (stereo not shown) [Example 69, 4-(5-(1,1-dimethyl-2-oxo-2-(1,3,4-thiadiazol-2-ylamino)ethyl)-8-(4-morpholinyl)-5H-pyrido[3′,2′:5,6]pyrano[2,3-b]pyridin-2-yl)-N,N-dimethylbenzamide], for which the Ki was 68.9 nM. Next, `Cc1ccc2c(n1)Oc1nc(-c3ccc(Oc4ccccc4)cc3)ccc1[C@H]2C(C)(C)C(=O)Nc1nncs1` [Example 23]: 4.59 nM; `CCN(C)C(=O)c1ccc(-c2ccc3c(n2)Oc2nc(C)ccc2[C@@H]3C(C)(C)C(=O)Nc2nnc(C(=O)N(C)C)s2)cc1` [Example 47]: 149 nM; `CCN(C)C(=O)c1ccc(-c2ccc3c(n2)Oc2ncccc2C3C(C)(C)C(=O)Nc2nnc(C(=O)NC3CC3)s2)cc1` (stereo not shown) [Example 7]: 65.6 nM.

`Cc1ccc2c(n1)Oc1nc(-c3ccc(C(=O)N4CCCC4)c(F)c3)ccc1[C@H]2C(C)(C)C(=O)Nc1nncs1` [Example 28]: the Ki came to 14.2 nM. As to `CNC(=O)c1nnc(NC(=O)C(C)(C)[C@H]2c3ccc(C)nc3Oc3nc(-c4ccc(C(=O)N(C)C)cc4)ccc32)s1` [Example 45], the Ki was 134 nM. The result for `Cc1ccc2c(n1)Oc1nc(-c3ccc(C(=O)N4CCC[C@@H]4C(N)=O)cc3)ccc1[C@H]2C(C)(C)C(=O)Nc1nnc(C)s1` [Example 91] reads 122 nM; that for `Cc1ccc2c(n1)Oc1nc(-c3ccc(C(=O)N4CCC(F)(F)C4)c(F)c3)ccc1[C@H]2C(C)(C)C(=O)Nc1nncs1` [Example 39], 38.2 nM; that for `Cc1ccc2c(n1)Oc1nc(-c3ccc(S(=O)(=O)C(C)C)cc3)ccc1[C@H]2C(C)(C)C(=O)Nc1nncs1` [Example 83], 25.2 nM. On to `CNC(=O)c1cnc(NC(=O)C(C)(C)[C@H]2c3ccc(C)nc3Oc3nc(-c4ccc(C(=O)N(C)C)cc4)ccc32)s1` [Example 51], for which the Ki came to 423 nM. For `Cc1ccc2c(n1)Oc1nc(-c3ccc(C(=O)N(C)C)cc3)ccc1[C@H]2C(C)(C)C(=O)Nc1ncc(C(=O)N2CCOCC2)s1` [Example 52], the Ki worked out at 411 nM. The result for `Cc1ccc2c(n1)Oc1nc(-c3ccc(OC(C)C)nc3)ccc1[C@H]2C(C)(C)C(=O)Nc1nncs1` [Example 74] reads 27.6 nM; that for `CN(C)C(=O)c1ccc(-c2ccc3c(n2)Oc2nc(N4CCCC4)ccc2C3C(C)(C)C(=O)Nc2nncs2)cc1` (stereo not shown) [Example 70, 4-(5-(1,1-dimethyl-2-oxo-2-(1,3,4-thiadiazol-2-ylamino)ethyl)-8-(1-pyrrolidinyl)-5H-pyrido[3′,2′:5,6]pyrano[2,3-b]pyridin-2-yl)-N,N-dimethylbenzamide], 385 nM; that for `Cc1ccc2c(n1)Oc1nc(-c3ccc(C(=O)N(C)C)cc3)ccc1[C@H]2C(C)(C)C(=O)Nc1nnc(C(=O)NC2CC2)s1` [Example 43], 11.6 nM. For `Cc1ccc2c(n1)Oc1nc(-c3ccc(CN4CCCC4)cc3)ccc1[C@H]2C(C)(C)C(=O)Nc1nncs1` [Example 80], the Ki came to 1150 nM. Take `Cc1ccc2c(n1)Oc1nc(-c3ccc(OC(F)(F)F)cc3)ccc1[C@H]2C(C)(C)C(=O)Nc1nncs1` [Example 24]: the inhibitory constant (Ki) turned out to be 2.66 nM.

On to `Cc1ccc2c(n1)Oc1nc(-c3ccc(C(=O)N(C)C)cc3)ccc1[C@H]2C(C)(C)C(=O)Nc1ncc(C(=O)NC2CC2)s1` [Example 53], for which the Ki is 106 nM.

On to `Cc1ccc2c(n1)Oc1nc(-c3ccc(S(C)(=O)=O)cc3)ccc1[C@H]2C(C)(C)C(=O)Nc1nncs1` [Example 37, 2-methyl-2-((5S)-2-methyl-8-(4-(methylsulfonyl)phenyl)-5H-pyrido[3′,2′:5,6]pyrano[2,3-b]pyridin-5-yl)-N-1,3,4-thiadiazol-2-ylpropanamide], for which the Ki came out at 78.9 nM.

`Cc1ccc2c(n1)Oc1nc(-c3ccc(C(=O)N4CCC[C@@H]4C(N)=O)cc3)ccc1[C@H]2C(C)(C)C(=O)Nc1nncs1` [Example 90]: the Ki is 103 nM. As to `CCN(C)C(=O)c1ccc(-c2ccc3c(n2)Oc2nc(C)ccc2[C@@H]3C(C)(C)C(=O)Nc2nnc(C(=O)NCCO)s2)cc1` [Example 85], the inhibition constant (Ki) was 67.2 nM. In the case of `CN(C)C(=O)c1ccc(-c2ccc3c(n2)Oc2nc(-c4ccccc4)ccc2C3C(C)(C)C(=O)Nc2nncs2)cc1` (stereo not shown) [Example 65, 4-(5-(1,1-dimethyl-2-oxo-2-(1,3,4-thiadiazol-2-ylamino)ethyl)-8-phenyl-5H-pyrido[3′,2′:5,6]pyrano[2,3-b]pyridin-2-yl)-N,N-dimethylbenzamide], the Ki is 657 nM. In the case of `Cc1ccc2c(n1)Oc1nc(Cl)ccc1C2C(C)(C)C(=O)Nc1nncs1` (stereo not shown) [Example 19], the inhibition constant (Ki) is 269 nM. `C=Cc1ccc2c(n1)Oc1nc(-c3ccc(C(=O)N(C)C)cc3)ccc1C2C(C)(C)C(=O)Nc1nncs1` (stereo not shown) [Example 64, 4-(5-(1,1-dimethyl-2-oxo-2-(1,3,4-thiadiazol-2-ylamino)ethyl)-8-vinyl-5H-pyrido[3′,2′:5,6]pyrano[2,3-b]pyridin-2-yl)-N,N-dimethylbenzamide]: the Ki is 80.8 nM. Turning to `Cc1ccc2c(n1)Oc1nc(-c3ccc(S(=O)(=O)N(C)C)cc3)ccc1[C@H]2C(C)(C)C(=O)Nc1nncs1` [Example 25], the inhibition constant Ki is 172 nM. Take `CSc1ccc(-c2ccc3c(n2)Oc2nc(C)ccc2[C@@H]3C(C)(C)C(=O)Nc2nncs2)cc1` [Example 29]: the Ki came to 18.9 nM. With `CC(C)(C(=O)Nc1nncs1)C1c2ccncc2Oc2nc(-c3ccc(C(=O)N4CCOCC4)cc3)ccc21` (stereo not shown) [Example 2, 2-methyl-2-(2-(4-(4-morpholinylcarbonyl)phenyl)-5H-pyrido[4′,3′:5,6]pyrano[2,3-b]pyridin-5-yl)-N-1,3,4-thiadiazol-2-ylpropanamide], the Ki is 199 nM.

Consider `Cc1ccc2c(n1)Oc1nc(-c3ccc(CC(C)C)cc3)ccc1[C@H]2C(C)(C)C(=O)Nc1nncs1` [Example 77], for which the Ki was 2.53 nM. The result for `Cc1ccc2c(n1)Oc1nc(-c3ccc(OC4CCCC4)cc3)ccc1[C@H]2C(C)(C)C(=O)Nc1nncs1` [Example 75] reads 13.5 nM; that for `Cc1ccc2c(n1)Oc1nc(-c3ccc(C(=O)NC(C)(C)C)cc3)ccc1[C@H]2C(C)(C)C(=O)Nc1nncs1` [Example 26], 591 nM; that for `Cc1ccc2c(n1)Oc1nc(-c3ccc(OC(C)(C)C)cc3)ccc1[C@H]2C(C)(C)C(=O)Nc1nncs1` [Example 79], 40.5 nM.

`Cc1ccc2c(n1)Oc1nc(-c3ccc(C(=O)N4CCOCC4)cc3)ccc1[C@H]2C(C)(C)C(=O)Nc1nnn(C)n1` [Example 92, 2-methyl-2-((5S)-2-methyl-8-(4-(4-morpholinylcarbonyl)phenyl)-5H-pyrido[3′,2′:5,6]pyrano[2,3-b]pyridin-5-yl)-N-(2-methyl-2H-tetrazol-5-yl)propanamide]: the Ki came out at 153 nM. As to `CC(C)(C(=O)Nc1nnc(C(=O)NC2CC2)s1)C1c2cccnc2Oc2nc(-c3ccc(C(=O)N4CCOCC4)cc3)ccc21` (stereo not shown) [Example 6], the Ki came out at 59 nM.

For the compound `CCN(C)C(=O)c1ccc(-c2ccc3c(n2)Oc2c(ccc[n+]2[O-])C3C(C)(C)C(=O)Nc2nncs2)cc1` (stereo not shown) [Example 84, 4-(5-(1,1-dimethyl-2-oxo-2-(1,3,4-thiadiazol-2-ylamino)ethyl)-9-oxido-5H-pyrido[3′,2′:5,6]pyrano[2,3-b]pyridin-2-yl)-N-ethyl-N-methylbenzamide], the Ki amounted to 1150 nM.

A word on the Ki: it is a measure of affinity in units of concentration, obtained from inhibition or displacement.
